Experimental data as given in US20230416225A1, “DIAMINOPYRIMIDINE CARBOXAMIDE INHIBITORS OF HPK1” (MERCK SHARP & DOHME LLC, priority 2020, published 2023).

Target: T1, Human HPK1, catalytic domain (Homo sapiens, UniProt Q92918)
T1 construct: purchased Carna
T1 sequence (Q92918 1-346): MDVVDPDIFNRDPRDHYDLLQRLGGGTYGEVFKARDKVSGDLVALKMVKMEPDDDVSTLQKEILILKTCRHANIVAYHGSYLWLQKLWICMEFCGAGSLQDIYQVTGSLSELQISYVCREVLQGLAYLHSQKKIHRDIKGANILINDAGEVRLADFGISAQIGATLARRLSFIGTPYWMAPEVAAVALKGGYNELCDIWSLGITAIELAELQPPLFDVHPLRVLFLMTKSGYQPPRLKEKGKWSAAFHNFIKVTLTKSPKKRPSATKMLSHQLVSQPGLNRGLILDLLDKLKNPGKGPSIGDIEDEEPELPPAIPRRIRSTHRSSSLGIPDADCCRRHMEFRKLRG
Assay: HPK1-SLP76 TR-FRET assay
Format: biochemical
Conditions: 75 pM HPK1, 10 uM ATP, 10 nM SLP76, 30 min compound pre-incubation

Row | IC50 | Compound
1 | 404 nM | NC(=O)c1cnc(NCc2ccc(C(F)(F)F)cc2)nc1Nc1cccc2c1CCNC2=O [Example 25-38, 4-[(1-oxo-1,2,3,4-tetrahydroisoquinolin-5-yl)amino]-2-({[4-(trifluoromethyl)phenyl]methyl}amino)pyrimidine-5-carboxamide]
2 | 78.8 nM | Cn1cc(Nc2ncc(C(N)=O)c(N[C@H](CO)C3CCCCC3)n2)cn1 [Example 26-49, 4-{[(1S)-1-cyclohexyl-2-hydroxyethyl]amino}-2-[(1-methyl-1H-pyrazol-4-yl)amino]pyrimidine-5-carboxamide]
3 | 9.83 nM | COc1cc2c(cc1Nc1ncc(C(N)=O)c(NCc3cccc(C#N)c3)n1)CN(C)CC2 [Example 26-58, 4-{[(3-cyanophenyl)methyl]amino}-2-[(6-methoxy-2-methyl-1,2,3,4-tetrahydroisoquinolin-7-yl)amino]pyrimidine-5-carboxamide]
4 | 3.57 nM | COc1nn(C)cc1Nc1ncc(C(N)=O)c(Nc2cccc3c2CCNC3=O)n1 [Example 7-47, 2-[(3-methoxy-1-methyl-1H-pyrazol-4-yl)amino]-4-[(1-oxo-1,2,3,4-tetrahydroisoquinolin-5-yl)amino]pyrimidine-5-carboxamide]
5 | 733 nM | COc1cc(F)ccc1Nc1ncc(C(N)=O)c(Nc2cccc3c2CCNC3=O)n1 [Example 25-41, 2-[(4-fluoro-2-methoxyphenyl)amino]-4-[(1-oxo-1,2,3,4-tetrahydroisoquinolin-5-yl)amino]pyrimidine-5-carboxamide]
6 | 2.74 nM | COc1cc2c(cc1Nc1ncc(C(N)=O)c(Nc3ccccc3C(=O)NC3CC3)n1)CN(C)CC2 [Example 7-118, 4-((2-(cyclopropylcarbamoyl)phenyl)a-mino)-2-((6-methoxy-2-methyl-1,2,3,4-tetrahydroisoquinolin-7-yl)amino)pyrimidine-5-carboxamide]
7 | 0.21 nM | COc1cc2c(cc1Nc1ncc(C(N)=O)c(Nc3c(F)cccc3C(F)(F)F)n1)CN(C)CC21CC1 [Example 21-1, 4-((2-fluoro-6-(trifluoromethyl)phenyl)amino)-2-((6′-methoxy-2′-methyl-2′,3′-dihydro-1′H-spiro[cyclopropane-1,4′-isoquinolin]-7′-yl)amino)pyrimidine-5-carboxamide]
8 | 0.25 nM | COc1cc2c(cc1Nc1ncc(C(N)=O)c(NC3CC4C5CCC(C5)C34)n1)CN(C)CC2 (stereo not drawn) [Example 26-15, 2-[(6-methoxy-2-methyl-1,2,3,4-tetrahydroisoquinolin-7-yl)amino]-4-[(tricyclo[4.2.1.0~2,5~]nonan-3-yl)amino]pyrimidine-5-carboxamide]
9 | 2.4 nM | COc1cc2c(cc1Nc1ncc(C(N)=O)c(Nc3ccc(F)c(F)c3F)n1)CN(C)CC2 [Example 4-13, 2-[(6-methoxy-2-methyl-1,2,3,4-tetrahydroisoquinolin-7-yl)amino]-4-[(2,3,4-trifluorophenyl)amino] pyrimidine-5-carboxamide]
10 | 0.37 nM | CN1CCc2cc(Cl)c(Nc3ncc(C(N)=O)c(Nc4cccc5c4CCNC5=O)n3)cc2C1 [Example 7-36, 2-[(6-chloro-2-methyl-1,2,3,4-tetrahydroisoquinolin-7-yl)amino]-4-[(1-oxo-1,2,3,4-tetrahydroisoquinolin-5-yl)amino]pyrimidine-5-carboxamide]
11 | 0.2 nM | COc1cc2c(cc1Nc1ncc(C(N)=O)c(Nc3ccccc3OC(F)(F)F)n1)CN(C)CC2 [Example 7-115, 2-[(6-methoxy-2-methyl-1,2,3,4-tetrahydroisoquinolin-7-yl)amino]-4-{[2-(trifluoromethoxy)phenyl]amino} pyrimidine-5-carboxamide]
12 | 203 nM | Cc1c(Cl)cccc1Nc1ncc(C(N)=O)c(Nc2cccc3c2CCNC3=O)n1 [Example 25-26, 2-[(3-chloro-2-methylphenyl)amino]-4-[(1-oxo-1,2,3,4-tetrahydroisoquinolin-5-yl)amino]pyrimidine-5-carboxamide]
13 | 0.51 nM | COc1cc2c(cc1Nc1ncc(C(N)=O)c(Nc3cccc4c3CCN(CC(C)(C)O)C4)n1)CN(C)CC2 [Example 7-28, 4-{[2-(2-hydroxy-2-methylpropyl)-1,2,3,4-tetrahydroisoquinolin-5-yl]amino}-2-[(6-methoxy-2-methyl-1,2,3,4-tetrahydroisoquinolin-7-yl)amino]pyrimidine-5-carboxamide]
14 | 55 nM | NC(=O)c1cnc(Nc2ccc3c(c2)COCC3)nc1Nc1ccccc1Br [Example 7-107, 4-[(2-bromophenyl)amino]-2-[(3,4-dihydro-1H-2-benzopyran-7-yl)amino]pyrimidine-5-carboxamide]
15 | 16.4 nM | COc1cc2c(cc1Nc1ncc(C(N)=O)c(Nc3ccccc3Br)n1)CN(C(C)C)CC2 [Example 9-8, 4-[(2-bromophenyl)amino]-2-{[6-methoxy-2-(propan-2-yl)-1,2,3,4-tetrahydroisoquinolin-7-yl]amino}pyrimidine-5-carboxamide]
16 | 0.55 nM | NC(=O)c1cnc(Nc2cnn(C3CCNCC3)c2)nc1Nc1cccc2c1CCNC2=O [Example 7-52, 4-[(1-oxo-1,2,3,4-tetrahydroisoquinolin-5-yl)amino]-2-{[1-(piperidin-4-yl)-1H-pyrazol-4-yl]amino}pyrimidine-5-carboxamide]
17 | 14 nM | CS(=O)(=O)Cc1ccc(Nc2ncc(C(N)=O)c(Nc3ccccc3CO)n2)cc1 [Example 7-68, 4-{[2-(hydroxymethyl)phenyl]amino}-2-({4-[(methylsulfonyl)methyl]phenyl}amino)pyrimidine-5-carboxamide]
18 | 326 nM | COc1cc2c(cc1Nc1ncc(C(N)=O)c(Nc3ccccc3C[C@@H](O)c3ccccc3)n1)CN(C)CC2 [Example 13-10, 4-({2-[(2R)-2-hydroxy-2-phenylethyl]phenyl}amino)-2-[(6-methoxy-2-methyl-1,2,3,4-tetrahydroisoquinolin-7-yl)amino]pyrimidine-5-carboxamide]
19 | 217 nM | NC(=O)c1cnc(Nc2ccc(F)cc2)nc1Nc1cccc2c1CCNC2=O [Example 25-5, 2-[(4-fluorophenyl)amino]-4-[(1-oxo-1,2,3,4-tetrahydroisoquinolin-5-yl)amino]pyrimidine-5-carboxamide]
20 | 0.2 nM | CN1CCc2cc(F)c(Nc3ncc(C(N)=O)c(Nc4c(F)cccc4C(F)(F)F)n3)cc2C1 [Example 4-29, 2-[(6-fluoro-2-methyl-1,2,3,4-tetrahydroisoquinolin-7-yl)amino]-4-{[2-fluoro-6-(trifluoromethyl)phenyl]amino} pyrimidine-5-carboxamide]
21 | 345 nM | NC(=O)c1cnc(Nc2ccccc2)nc1Nc1ccccc1Br [Example 7-105, 4-[(2-bromophenyl)amino]-2-(phenylamino)pyrimidine-5-carboxamide]
22 | 29.7 nM | COc1cc2c(cc1Nc1ncc(C(N)=O)c(N[C@@H]3CCCc4cc(F)ccc43)n1)CN(C)CC2 [Example 26-46, 4-{[(1R)-6-fluoro-1,2,3,4-tetrahydronaphthalen-1-yl]amino}-2-[(6-methoxy-2-methyl-1,2,3,4-tetrahydroisoquinolin-7-yl)amino]pyrimidine-5-carboxamide]
23 | 283 nM | COc1cc(N2CCC(N3CCOCC3)CC2)ccc1Nc1ncc(C(N)=O)c(Nc2ccccc2Br)n1 [Example 7-116, 4-[(2-bromophenyl)amino]-2-({2-methoxy-4-[4-(morpholin-4-yl)piperidin-1-yl]phenyl}amino)pyrimidine-5-carboxamide]
24 | 1.23 nM | COc1cc2c(cc1Nc1ncc(C(N)=O)c(NCC3CCNCC3)n1)CN(C)CC2 [Example 26-72, 2-[(6-methoxy-2-methyl-1,2,3,4-tetrahydroisoquinolin-7-yl)amino]-4-{[(piperidin-4-yl)methyl]amino}pyrimidine-5-carboxamide]
25 | 40.6 nM | NC(=O)c1cnc(Nc2cnn(C3CCNCC3)c2)nc1NC1CCc2cc(F)c(F)cc21 (stereo not drawn) [Example 26-50, 4-[(5,6-difluoro-2,3-dihydro-1H-inden-1-yl)amino]-2-{[1-(piperidin-4-yl)-1H-pyrazol-4-yl]amino}pyrimidine-5-carboxamide]
26 | 0.35 nM | COc1cc2c(cc1Nc1ncc(C(N)=O)c(Nc3cccc(CO)c3)n1)CN(C)CC2 [Example 1-1, 4-((3-(Hydroxymethyl)phenyl)amino)-2-((6-methoxy-2-methyl-1,2,3,4-tetrahydroisoquinolin-7-yl)amino)pyrimidine-5-carboxamide]
27 | 60.2 nM | COc1cc2c(cc1Nc1ncc(C(N)=O)c(N[C@H]3CC[C@@H](N(C)C)CC3)n1)CN(C)CC2 [Example 26-17, 4-{[cis-4-(dimethylamino)cyclohexyl]amino}-2-[(6-methoxy-2-methyl-1,2,3,4-tetrahydroisoquinolin-7-yl)amino]pyrimidine-5-carboxamide]
28 | 199 nM | COc1cc(C(=O)N2CCC(N(C)C)C2)ccc1Nc1ncc(C(N)=O)c(Nc2ccccc2C(F)(F)F)n1 (stereo not drawn) [Example 11-2, 2-((4-(3-(dimethylamino)pyrrolidine-1-carbonyl)-2-methoxyphenyl)amino)-4-((2-(trifluoromethyl)phenyl)amino)pyrimidine-5-carboxamide]
29 | 1.49 nM | COc1cc2c(cc1Nc1ncc(C(N)=O)c(Nc3cccc(Br)c3)n1)CN(C)CC2 [Example 7-71, 4-[(3-bromophenyl)amino]-2-[(6-methoxy-2-methyl-1,2,3,4-tetrahydroisoquinolin-7-yl)amino]pyrimidine-5-carboxamide]
30 | 0.82 nM | COc1cc2c(cc1Nc1ncc(C(N)=O)c(Nc3c(F)cccc3C(C)O)n1)CN(C)CC2 (racemic) [Example 23-2, (RAC)-4-((2-fluoro-6-(1-hydroxyethyl)phenyl)amino)-2-((6-methoxy-2-methyl-1,2,3,4-tetrahydroisoquinolin-7-yl)amino)pyrimidine-5-carboxamide]
